# “And” between values parts separate entries of the source, which are not always exact repeats. Equal entries are not always repeated. “Also recorded” adds a separate entry of the source. Where two headings read alike, the source gives them in different places.
# Experiments:
# guanylate cyclase [1] = target: guanylate cyclase (Rattus norvegicus, UniProt P23897); assay: biochemical; parameters: species or system Sprague-Dawley rat; conditions: for inhibition at 1000 µM / % Inhibition of ST-activated guanylate cyclase activity: 1.0 mM; for inhibition at 10000 µM: 10 mM; for inhibition at 100 µM: 0.1 mM; for % Inhibition of ST-activated guanylate cyclase activity: ST-activated (6 units/ml)
# guanylate cyclase [2] = conditions: cited from earlier work
# [3] = system: 8-bromo cyclic GMP-induced intestinal fluid secretion; parameters: species or system suckling mice; conditions: mouse, in vivo
# [4] = system: Escherichia coli heat-stable enterotoxin (ST)-induced intestinal fluid secretion; format: in vivo, suckling mice
# [5] = system: basal intestinal fluid secretion; parameters: species or system suckling mice; conditions: mouse, in vivo
# ST = conditions: cited from earlier work
# [6] = system: intestinal fluid secretion; conditions: in vivo; cited from earlier work
# [7] = read-out: % Inhibition of ST-activated guanylate cyclase activity, ST-activated (6 units/ml)
# [8] = read-out: % Inhibition of basal guanylate cyclase activity, basal
# [9] = read-out: inhibition of ST-activated guanylate cyclase activity, ST-activated (6 ST units/ml)
# [10] = read-out: inhibition of basal guanylate cyclase activity, basal
# guanylate cyclase (Rattus norvegicus, UniProt P23897), sequence (P23897 23-1072): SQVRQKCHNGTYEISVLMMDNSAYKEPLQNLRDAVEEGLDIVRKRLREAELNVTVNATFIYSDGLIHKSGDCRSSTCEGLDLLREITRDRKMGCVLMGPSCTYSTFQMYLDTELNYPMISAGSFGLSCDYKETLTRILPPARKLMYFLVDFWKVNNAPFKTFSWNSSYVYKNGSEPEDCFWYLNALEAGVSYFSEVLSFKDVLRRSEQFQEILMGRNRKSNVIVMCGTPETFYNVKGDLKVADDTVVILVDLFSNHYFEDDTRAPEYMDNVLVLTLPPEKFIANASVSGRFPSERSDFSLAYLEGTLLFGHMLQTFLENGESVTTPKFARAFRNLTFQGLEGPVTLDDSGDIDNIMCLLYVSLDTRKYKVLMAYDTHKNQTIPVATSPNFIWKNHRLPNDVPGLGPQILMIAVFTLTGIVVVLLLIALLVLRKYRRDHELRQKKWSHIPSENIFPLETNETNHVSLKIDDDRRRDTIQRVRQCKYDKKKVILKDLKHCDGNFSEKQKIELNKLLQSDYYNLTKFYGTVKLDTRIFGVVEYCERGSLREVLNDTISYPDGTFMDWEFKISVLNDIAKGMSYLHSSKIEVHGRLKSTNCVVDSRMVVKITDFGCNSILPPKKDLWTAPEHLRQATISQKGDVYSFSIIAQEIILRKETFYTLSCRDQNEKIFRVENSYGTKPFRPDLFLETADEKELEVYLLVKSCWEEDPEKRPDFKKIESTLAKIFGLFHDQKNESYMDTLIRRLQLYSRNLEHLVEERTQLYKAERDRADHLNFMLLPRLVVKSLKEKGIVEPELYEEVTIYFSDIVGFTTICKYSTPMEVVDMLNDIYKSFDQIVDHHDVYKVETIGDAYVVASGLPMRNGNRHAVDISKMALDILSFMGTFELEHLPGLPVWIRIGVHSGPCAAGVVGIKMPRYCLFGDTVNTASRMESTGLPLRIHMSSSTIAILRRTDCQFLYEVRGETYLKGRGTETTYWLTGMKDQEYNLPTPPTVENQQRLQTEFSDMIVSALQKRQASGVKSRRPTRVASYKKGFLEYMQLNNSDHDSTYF
smiles,measurement,setting,value
"NCCSSCCN [Cystamine, cystamine]",inhibition at 1000 µM,guanylate cyclase [1]; [7],73%
same,inhibition at 1000 µM,guanylate cyclase [1]; [8],45%
same,inhibition at 10000 µM,guanylate cyclase [1]; [9],82%
same,inhibition at 10000 µM,guanylate cyclase [1]; [10],54%
same,inhibition at 100 µM,"guanylate cyclase [1]; read-out: reduction in basal guanylate cyclase activity, basal",13%
same,inhibition at 100 µM,"guanylate cyclase [1]; read-out: reduction of ST-induced guanylate cyclase activity, ST-activated (6 ST units/ml)",32%
same,effect on guanylate cyclase (in words),guanylate cyclase [2],very marked effects on guanylate cyclase activity; also recorded: almost completely inactivate
same,"Intestinal:Body Wt. Ratio, 8-bromo cyclic GMP-induced",[3],0.1188 ± 0.003
same,effect on 8-bromo cyclic GMP-induced intestinal secretion (in words),[3],no effect
same,"Intestinal:Body Wt. Ratio, 8-bromo cyclic GMP-induced",[3]; sc,0.1115 ± 0.003
same,effect on ST-induced secretion (in words),"[4]; mouse, in vivo",did not significantly affect ST-induced secretion
same,effect on ST-induced secretion (in words),"[4]; mouse, in vivo, sc",reduce ST-induced intestinal secretion; also recorded: significantly reduce secretion; also recorded: significantly reduced ST-induced secretion
same,"intestinal fluid ratio (intestinal weight to remaining body weight), ST-induced","[4]; mouse, in vivo, sc",0.0935±0.003 and 0.1154± 0.006
same,effect on basal intestinal fluid level (in words),[5]; sc,did not significantly alter basal intestinal fluid levels
O[C@H](CS)[C@H](O)CS (racemic) [dithiothreitol],effect on biological activity of ST (in words),ST,loses biological activity promptly
"CC(=O)N[C@@H](CS)C(=O)O [Acetylcysteine, acetylcysteine]",% Inhibition of ST-activated guanylate cyclase activity,guanylate cyclase [1],14%
same,% Inhibition of ST-activated guanylate cyclase activity,guanylate cyclase [1]; listed as acetylcysteine,15%
same,effect on basal guanylate cyclase activity (in words),guanylate cyclase [1]; 1 mM,did not alter basal guanylate cyclase activity; also recorded: None of the other sulfhydryl compounds (1 mM) affected basal enzyme activity
same,inhibition at 1000 µM,guanylate cyclase [1]; [7],11 to 21%
same,inhibition at 1000 µM,guanylate cyclase [1]; [8],0%
same,"Intestinal:Body Wt. Ratio, 8-bromo cyclic GMP-induced",[3],0.1028 ± 0.003
same,"Intestinal:Body Wt. Ratio, 8-bromo cyclic GMP-induced",[3]; sc,0.1024 ± 0.003
same,effect on ST-induced responses (in words),"[4]; mouse, in vivo",No significant inhibition
same,"intestinal fluid ratio (intestinal weight to remaining body weight), ST-induced","[4]; mouse, in vivo",0.0796±0.005 and 0.1061±0.005
same,effect on ST-induced secretion (in words),"[4]; mouse, in vivo, sc",no inhibition
same,"intestinal fluid ratio (intestinal weight to remaining body weight), ST-induced","[4]; mouse, in vivo, sc",0.0804±0.003
same,effect on basal fluid level (in words),[5]; sc,not altered
same,effect on basal intestinal fluid level (in words),[5]; sc,not affected
COc1ccc(O)c(C(C)(C)C)c1 [Butylated hydroxyanisole],effect on ST activation of guanylate cyclase (in words),guanylate cyclase [2],significantly reduces
same,effect on ST-induced intestinal fluid secretion (in words),[6],significantly reduces
"N[C@@H](CCSC[C@H](N)C(=O)O)C(=O)O [Cystathionine, cystathionine]",effect on ST-activated guanylate cyclase activity (in words),"guanylate cyclase [1]; ST-activated, concentration not given",no effect
same,effect on basal guanylate cyclase activity (in words),guanylate cyclase [1]; concentration not given,no effect
same,"Intestinal:Body Wt. Ratio, 8-bromo cyclic GMP-induced",[3],0.1043 ± 0.002
same,effect on 8-bromo cyclic GMP-induced intestinal secretion (in words),[3],no alteration
same,"Intestinal:Body Wt. Ratio, 8-bromo cyclic GMP-induced",[3]; sc,0.1175 ± 0.004
same,effect on ST-induced fluid secretion (in words),"[4]; mouse, in vivo",no alteration
same,effect on ST-induced fluid secretion (in words),"[4]; mouse, in vivo, sc",did not inhibit ST-induced fluid secretion
same,effect on basal responses (in words),[5],no alteration
same,effect on basal secretion (in words),[5]; sc,nor alter the basal secretory ratio
N[C@@H](CSSC[C@H](N)C(=O)O)C(=O)O [L-cystine],effect on ST-induced guanylate cyclase activity (in words),"guanylate cyclase [1]; ST-activated, 1 mM",significantly reduced
same,effect on basal guanylate cyclase activity (in words),guanylate cyclase [1]; 1 mM,neither drug affected basal activity
same,effect on basal guanylate cyclase activity (in words),guanylate cyclase [1]; concentration not given,Neither compound inhibited basal guanylate cyclase activity
same,inhibition at 1000 µM,guanylate cyclase [1]; [7],39%
same,inhibition at 1000 µM,guanylate cyclase [1]; [8],0%
same,"Intestinal:Body Wt. Ratio, 8-bromo cyclic GMP-induced",[3],0.1191 ± 0.004
same,effect on 8-bromo cyclic GMP-induced intestinal secretion (in words),[3],Neither compound altered cyclic GMP-induced intestinal secretion
same,"Intestinal:Body Wt. Ratio, 8-bromo cyclic GMP-induced",[3]; sc,0.1043 ± 0.004
same,effect on ST-induced intestinal secretion (in words),"[4]; mouse, in vivo",significantly reduced
same,"intestinal fluid ratio (intestinal weight to remaining body weight), ST-induced","[4]; mouse, in vivo",0.0940±0.004 and 0.1288±0.003
same,effect on ST-induced secretion (in words),"[4]; mouse, in vivo, sc",neither compound reduced intestinal secretion
same,"intestinal fluid ratio (intestinal weight to remaining body weight), ST-induced","[4]; mouse, in vivo, sc",0.1115±0.006
same,effect on basal secretion (in words),[5]; sc,Neither agent given s.c. or i.g. significantly altered basal secretion
NCCCNCCSP(=O)(O)O [S-2-(3-aminopropylamino) ethyl phosphorothioic acid],"Ratio ± SEM, ST-induced","[4]; mouse, in vivo",0.1034 ± 0.008 and 0.0685 ± 0.003
"c1ccc2c(CC3=NCCN3)cccc2c1 [Naphazoline, naphazoline]",death of mice,N = 3,ALL DEAD
same,margin to lethal dose (in words),"mouse, in vivo",only one log less than a lethal dose
same,effect against ST (in words),[4]; 10 mM,effective
same,"intestinal-fluid ratio ± SEM, experiment #1","[4]; mouse, in vivo",.150 ± .005
same,"intestinal-fluid ratio ± SEM, experiment #2","[4]; mouse, in vivo",.123 ± .005
"NCCS [Cysteamine, cysteamine]",% Inhibition of ST-activated guanylate cyclase activity,guanylate cyclase [1],21%
same,% Inhibition of ST-activated guanylate cyclase activity,guanylate cyclase [1]; listed as cysteamine,21%
same,effect on basal guanylate cyclase activity (in words),guanylate cyclase [1]; 1 mM,did not alter basal guanylate cyclase activity; also recorded: did not affect basal activity
same,inhibition at 1000 µM,guanylate cyclase [1]; [7],11 to 21%
same,inhibition at 1000 µM,guanylate cyclase [1]; [8],0%
same,inhibition at 10000 µM,guanylate cyclase [1]; [9],63%
same,inhibition at 10000 µM,guanylate cyclase [1]; [10],15%
same,"Intestinal:Body Wt. Ratio, 8-bromo cyclic GMP-induced",[3],0.1106 ± 0.010
same,"Intestinal:Body Wt. Ratio, 8-bromo cyclic GMP-induced",[3]; sc,0.1071 ± 0.005
same,P of inhibition of ST-induced secretion (FIG. 2),"[4]; mouse, in vivo",< 0.001
same,effect on ST-induced fluid secretion (in words),"[4]; mouse, in vivo",most effective inhibitory agent
same,effect on ST-induced secretion (in words),"[4]; mouse, in vivo",significantly reduced; also recorded: reduced secretion
same,"intestinal fluid ratio (intestinal weight to remaining body weight), ST-induced","[4]; mouse, in vivo",0.0804±0.005
same,intestinal-fluid ratio ± SEM,"[4]; mouse, in vivo",.125 ± 0.003
same,"intestinal-fluid ratio ± SEM, experiment #1","[4]; mouse, in vivo",.127 ± .007
same,"intestinal-fluid ratio ± SEM, experiment #2","[4]; mouse, in vivo",.119 ± .006
same,effect on ST-induced ratio (in words),"[4]; mouse, in vivo, sc",not significantly changed
same,"intestinal fluid ratio (intestinal weight to remaining body weight), ST-induced","[4]; mouse, in vivo, sc",0.0765±0.003 and 0.0840 ± 0.005
same,effect on basal secretion (in words),[5],did not alter basal secretion
same,effect on basal fluid level (in words),[5]; sc,not affected
OCCS [2-mercaptoethanol],effect on biological activity of ST (in words),ST,loses biological activity promptly
N[C@H](CSSC[C@@H](N)C(=O)O)C(=O)O [D-cystine],effect on ST-induced guanylate cyclase activity (in words),"guanylate cyclase [1]; ST-activated, 1 mM",significantly reduced
same,effect on basal guanylate cyclase activity (in words),guanylate cyclase [1]; 1 mM,neither drug affected basal activity
same,effect on basal guanylate cyclase activity (in words),guanylate cyclase [1]; concentration not given,Neither compound inhibited basal guanylate cyclase activity
same,inhibition at 1000 µM,guanylate cyclase [1]; [7],33%
same,inhibition at 1000 µM,guanylate cyclase [1]; [8],0%
same,"Intestinal:Body Wt. Ratio, 8-bromo cyclic GMP-induced",[3],0.1048 ± 0.004
same,effect on 8-bromo cyclic GMP-induced intestinal secretion (in words),[3],Neither compound altered cyclic GMP-induced intestinal secretion
same,"Intestinal:Body Wt. Ratio, 8-bromo cyclic GMP-induced",[3]; sc,0.1001 ± 0.005
same,effect on ST-induced intestinal secretion (in words),"[4]; mouse, in vivo",significantly reduced
same,"intestinal fluid ratio (intestinal weight to remaining body weight), ST-induced","[4]; mouse, in vivo",0.1034±0.004 and 0.1197±0.004
same,effect on ST-induced secretion (in words),"[4]; mouse, in vivo, sc",neither compound reduced intestinal secretion
same,"intestinal fluid ratio (intestinal weight to remaining body weight), ST-induced","[4]; mouse, in vivo, sc",0.1092±0.011
same,effect on basal secretion (in words),[5]; sc,Neither agent given s.c. or i.g. significantly altered basal secretion
N[C@@H](CS[35S]C[C@H](N)C(=O)O)C(=O)O [^35 S-cystine],effect on guanylate cyclase (in words),guanylate cyclase [2],reversible loss of enzyme activity
NO [hydroxylamine],effect on guanylate cyclase (in words),guanylate cyclase [2],activates guanylate cyclase
same,effect on intestinal ion transport (in words),[6],causes intestinal ion transport alterations similar to those seen with ST
N[C@H](CS)C(=O)O [D-cysteine],% Inhibition of ST-activated guanylate cyclase activity,guanylate cyclase [1],16%
same,effect on basal guanylate cyclase activity (in words),guanylate cyclase [1]; 1 mM,did not alter basal guanylate cyclase activity; also recorded: None of the other sulfhydryl compounds (1 mM) affected basal enzyme activity
same,inhibition at 1000 µM,guanylate cyclase [1]; [7],11 to 21%
same,inhibition at 1000 µM,guanylate cyclase [1]; [8],0%
same,"Intestinal:Body Wt. Ratio, 8-bromo cyclic GMP-induced",[3],0.1191 ± 0.006
same,"Intestinal:Body Wt. Ratio, 8-bromo cyclic GMP-induced",[3]; sc,0.1155 ± 0.005
same,"intestinal fluid ratio (intestinal weight to remaining body weight), ST-induced","[4]; mouse, in vivo",0.0768±0.002 and 0.1121±0.005
same,effect on ST-induced fluid responses (in words),"[4]; mouse, in vivo, sc",neither D- or L-cysteine inhibited ST-induced fluid responses
same,effect on basal intestinal fluid level (in words),[5]; sc,No effect on basal fluid level
COc1ccc2cc3[n+](cc2c1OC)CCc1cc2c(cc1-3)OCO2 [berberine],intestinal-fluid ratio ± SEM,"[4]; mouse, in vivo",.122 ± 0.003
same,"intestinal-fluid ratio, pre-treatment","[4]; mouse, in vivo",.122 ± .004
N[C@@H](CS)C(=O)O [L-cysteine],% Inhibition of ST-activated guanylate cyclase activity,guanylate cyclase [1],11%
same,effect on basal guanylate cyclase activity (in words),guanylate cyclase [1]; 1 mM,did not alter basal guanylate cyclase activity; also recorded: None of the other sulfhydryl compounds (1 mM) affected basal enzyme activity
same,inhibition at 1000 µM,guanylate cyclase [1]; [7],11 to 21%
same,inhibition at 1000 µM,guanylate cyclase [1]; [8],0%
same,"Intestinal:Body Wt. Ratio, 8-bromo cyclic GMP-induced",[3],0.1097 ± 0.004
same,"Intestinal:Body Wt. Ratio, 8-bromo cyclic GMP-induced",[3]; sc,0.1051 ± 0.006
same,"intestinal fluid ratio (intestinal weight to remaining body weight), ST-induced","[4]; mouse, in vivo",0.0680±0.001 and 0.0877±0.006
same,effect on ST-induced fluid responses (in words),"[4]; mouse, in vivo, sc",neither D- or L-cysteine inhibited ST-induced fluid responses
same,effect on basal intestinal fluid level (in words),[5]; sc,No effect on basal fluid level

# From patent publication US4701458A (priority 1985, dated 1987)
